We go through 21 molecules from the Kinase Knowledgebase extract (Sharma et al. 2016).

pIC50, pKd: −log10 of the molar value. Where only a bound is given, the exact number is not on record here.

The subject of assay [1] is MAPK14 (rat). The settings on record: dose or concentration not given here.
Assay [2] has as its target MAPK14 (UniProt Q16539).
In assay [3] the target is MAPK14 (human) (UniProt Q16539). Kind of assay: Enzyme Assay.
Assay [4] has as its target EGFR (human), P00533 [L861Q].
Assay [5] concerns the target EGFR (human), P00533 [L858R].
Assay [6] concerns the target EGFR (human), P00533 [G719C]. The settings on record: a375.
Assay [7] addresses EGFR (human), P00533 [E746-A750del]. The following applies: a375.
Assay [8] deals with ROCK2 (human) (UniProt O75116). As to the kind of experiment: Inhibition of ROCK2 Kinase Activity.
Assay [9] concerns the target ROCK2 (human) (UniProt O75116). As to the kind of experiment: Inhibition of ROCK2 Kinase Activity (MLSCN Assay).
In assay [10] the target is EGFR (UniProt P00533).
Assay [11] deals with PIK3CG (human) (UniProt P48736). Kind of assay: Inhibition of PIK3CG Kinase Activity.
For assay [12], the target named is PIK3CD (Human) (UniProt O00329). As to the kind of experiment: Inhibition of PIK3CD Kinase Activity.
For assay [13], the target named is PIK3CB (Human) (UniProt P42338). Kind of assay: Inhibition of PIK3CB Kinase Activity.
In assay [14] the target is PIK3CD (Human) (UniProt O00329). As to the kind of experiment: Cellular Inhibition of PIK3CD Kinase in Raji (Burkitt’s Lymphoma) Cells.
In assay [15] the target is EGFR (human), P00533 [WT].
The target in assay [16] is CDK2 (human) (UniProt P24941). Kind of assay: Enzyme Assay.
For assay [17], the target named is CDK2 (human) (UniProt P24941). As to the kind of experiment: Enzyme Assay. The source holds these as a separate data set.
Assay [18] deals with EGFR (human) (UniProt P00533).
Assay [19] has as its target EGFR (human) (UniProt P00533). The settings on record: geo.
Assay [20] addresses EGFR (human) (UniProt P00533). The settings on record: pc-9.
The target of assay [21] is EGFR (human) (UniProt P00533). The settings on record: geo. The source holds these as a separate data set.
Assay [22] has as its target EGFR (human) (UniProt P00533). This is another data set of the same source.
Assay [23] addresses PIK3CA (human) (UniProt P42336). As to the kind of experiment: Cellular Inhibition of PIK3CA Kinase in MDA-MB-453 Cells.
Assay [24] concerns the target EGFR (UniProt P00533). The source holds these as a separate data set.
The target of assay [25] is EGFR (UniProt P00533). The source holds these as a separate data set.
The subject of assay [26] is MAPK14 (OF1 mice). As to the kind of experiment: P38-mediated TNF-alpha Inhibition (OF1 Mice).
The target in assay [27] is EGFR (Hamster) (UniProt P00533). The settings on record: er22.
Assay [28] deals with EGFR (human), P00533 [WT]. This is another data set of the same source.
Assay [29] has as its target EGFR (human) (UniProt P00533). The source holds these as a separate data set.
Assay [30] addresses EGFR (human), P00533 [T790M]. The settings on record: h1975.
Assay [31] deals with CDK2 (UniProt P24941). Kind of assay: Enzyme Assay.
Assay [32] addresses CDK2 (UniProt P24941). As to the kind of experiment: Enzyme Assay. This is another data set of the same source.
For assay [33], the target named is MAPK14 (human) (UniProt Q16539). As to the kind of experiment: p38 --- IL-1 Inhibition (whole blood cells).
Assay [34] addresses MAPK14 (UniProt Q16539). As to the kind of experiment: p38-mediated EGFR Peptide Phosphorylation Inhibition.
For assay [35], the target named is EGFR (human) (UniProt P00533). The settings on record: A431.
Assay [36] has as its target EGFR (human) (UniProt P00533). The settings on record: a431.
Assay [37] addresses MAPK14 (human) (UniProt Q16539). Kind of assay: p38-mediated IL-1 Inhibition (LPS-Stimulated PBMCs). The settings on record: pbmc.
For assay [38] the target is unchanged. As to the kind of experiment: p38-mediated TNF-Inhibition (LPS-Stimulated PBMCs). The following applies: pbmc.

EGFR (human), sequence (P00533 whole entry, looked up): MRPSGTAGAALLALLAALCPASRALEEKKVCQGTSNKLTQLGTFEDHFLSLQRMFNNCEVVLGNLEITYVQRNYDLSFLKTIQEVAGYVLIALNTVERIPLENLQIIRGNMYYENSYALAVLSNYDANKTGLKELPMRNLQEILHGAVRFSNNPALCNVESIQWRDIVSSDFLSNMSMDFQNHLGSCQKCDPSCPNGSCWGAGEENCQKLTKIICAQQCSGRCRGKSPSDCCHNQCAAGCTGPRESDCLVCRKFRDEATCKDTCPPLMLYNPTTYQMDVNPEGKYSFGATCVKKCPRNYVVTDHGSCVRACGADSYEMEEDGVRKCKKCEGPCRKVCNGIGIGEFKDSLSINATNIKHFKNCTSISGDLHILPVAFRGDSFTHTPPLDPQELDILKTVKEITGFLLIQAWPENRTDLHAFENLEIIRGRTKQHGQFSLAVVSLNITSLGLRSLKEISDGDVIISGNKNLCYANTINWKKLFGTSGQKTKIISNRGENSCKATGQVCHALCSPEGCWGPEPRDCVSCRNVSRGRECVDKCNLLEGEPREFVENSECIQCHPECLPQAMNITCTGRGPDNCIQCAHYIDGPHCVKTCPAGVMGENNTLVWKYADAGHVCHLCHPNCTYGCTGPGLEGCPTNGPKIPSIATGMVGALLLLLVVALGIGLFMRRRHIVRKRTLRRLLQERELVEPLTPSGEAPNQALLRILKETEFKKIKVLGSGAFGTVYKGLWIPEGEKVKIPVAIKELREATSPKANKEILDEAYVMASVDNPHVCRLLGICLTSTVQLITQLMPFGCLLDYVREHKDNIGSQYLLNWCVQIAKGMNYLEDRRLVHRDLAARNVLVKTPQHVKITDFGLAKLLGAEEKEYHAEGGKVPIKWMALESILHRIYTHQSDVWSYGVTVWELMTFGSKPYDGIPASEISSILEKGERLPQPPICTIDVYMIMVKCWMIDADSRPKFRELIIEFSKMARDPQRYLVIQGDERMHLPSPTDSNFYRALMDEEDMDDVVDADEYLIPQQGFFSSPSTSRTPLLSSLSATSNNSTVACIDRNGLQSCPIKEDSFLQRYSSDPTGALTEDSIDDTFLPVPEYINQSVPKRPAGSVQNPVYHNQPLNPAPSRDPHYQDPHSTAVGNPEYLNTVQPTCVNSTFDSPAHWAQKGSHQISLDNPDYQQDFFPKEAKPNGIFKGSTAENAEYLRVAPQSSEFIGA
EGFR, sequence (P00533 whole entry, looked up): as above
MAPK14 (human), sequence (Q16539 whole entry, looked up): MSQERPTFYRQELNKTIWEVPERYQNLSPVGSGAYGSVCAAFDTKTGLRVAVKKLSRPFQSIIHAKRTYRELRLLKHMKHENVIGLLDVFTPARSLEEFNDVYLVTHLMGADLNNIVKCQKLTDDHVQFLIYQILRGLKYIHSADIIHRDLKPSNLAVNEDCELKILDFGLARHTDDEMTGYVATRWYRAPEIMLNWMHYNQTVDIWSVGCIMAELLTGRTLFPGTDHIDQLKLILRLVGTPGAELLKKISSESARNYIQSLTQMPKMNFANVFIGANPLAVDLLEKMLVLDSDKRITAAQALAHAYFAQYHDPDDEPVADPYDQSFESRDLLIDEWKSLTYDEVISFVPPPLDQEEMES
EGFR (human), P00533 [WT], sequence (P00533 whole entry, looked up): as the sequence (P00533 whole entry, looked up) above
MAPK14, sequence (Q16539 whole entry, looked up): as the sequence (Q16539 whole entry, looked up) above
PIK3CD (Human), sequence (O00329 whole entry, looked up): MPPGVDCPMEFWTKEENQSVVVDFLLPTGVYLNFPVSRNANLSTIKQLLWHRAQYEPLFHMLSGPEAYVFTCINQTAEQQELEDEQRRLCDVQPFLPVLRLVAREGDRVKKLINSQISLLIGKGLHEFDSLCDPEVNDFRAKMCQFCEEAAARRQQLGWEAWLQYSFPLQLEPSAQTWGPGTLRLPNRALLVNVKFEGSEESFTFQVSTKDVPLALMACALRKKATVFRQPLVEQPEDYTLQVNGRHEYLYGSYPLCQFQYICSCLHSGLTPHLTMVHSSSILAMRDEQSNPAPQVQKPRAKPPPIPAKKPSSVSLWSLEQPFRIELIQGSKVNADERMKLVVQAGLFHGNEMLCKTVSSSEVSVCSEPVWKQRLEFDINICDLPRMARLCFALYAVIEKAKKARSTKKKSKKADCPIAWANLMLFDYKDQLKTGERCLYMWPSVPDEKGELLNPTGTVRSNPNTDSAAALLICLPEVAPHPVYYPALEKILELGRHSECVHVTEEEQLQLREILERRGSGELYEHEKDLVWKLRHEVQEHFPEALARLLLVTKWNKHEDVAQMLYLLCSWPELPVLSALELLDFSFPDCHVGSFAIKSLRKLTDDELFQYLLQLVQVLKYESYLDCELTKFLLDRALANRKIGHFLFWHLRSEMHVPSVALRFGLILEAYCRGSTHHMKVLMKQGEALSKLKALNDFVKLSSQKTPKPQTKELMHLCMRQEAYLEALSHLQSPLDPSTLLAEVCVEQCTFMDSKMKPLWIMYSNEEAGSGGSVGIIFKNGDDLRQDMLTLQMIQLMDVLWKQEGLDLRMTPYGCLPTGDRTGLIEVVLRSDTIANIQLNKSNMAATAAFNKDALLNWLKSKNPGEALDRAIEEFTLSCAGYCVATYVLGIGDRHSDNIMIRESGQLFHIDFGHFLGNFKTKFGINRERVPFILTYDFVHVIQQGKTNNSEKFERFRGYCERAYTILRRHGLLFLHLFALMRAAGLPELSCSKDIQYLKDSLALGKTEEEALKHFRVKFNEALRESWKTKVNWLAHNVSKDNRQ

In general, inhibition refers to how much of the control response was suppressed. Regarding `COc1cc(N)nc2[nH]c(-c3ccc(F)cc3)c(-c3ccncc3)c12`, the inhibition in [1] came to 97%. For the same molecule, the activity in assay [2] stood at 6 nM.

As usually defined, the pIC50 is −log10 of the IC50, conventionally taken in molar units. A higher pIC50 goes with a low IC50. In general, pKd refers to −log10 of the Kd, conventionally taken in molar units. Read a high pKd as a low Kd. Turning to `CN(C)C/C=C/C(=O)Nc1cccc(C(=O)Nc2ccc(Nc3nccc(-c4c(-c5ccccc5)nn5ccccc45)n3)cc2)c1`, the pIC50 in assay [3] was 7.20; in [4] it was 7.68; in assay [5] it was 7.60. Moreover, the figures for the pKd in assay [6] and in assay [7] were 8.59 and 8.15, respectively.

For `O=C(Nc1nc(-c2ccncc2)cs1)C1COc2ccccc2O1` (stereo not drawn), the results for the pIC50 in assay [8] and in assay [9] were 7.40 and > 8.52, respectively.

In the case of `CO[C@H]1[C@@H](N(C)C2C=NC=CN2)C[C@@H]2O[C@@]1(C)n1c3ccccc3c3c4c(c5c6ccccc6n2c5c31)C(=O)NC4` (stereo partly drawn), in [10], the pIC50 was 5.09.

In the case of `CC(C)(Cc1ccccc1Br)Nc1nc(N2CCOCC2)nc(-n2c(C(F)F)nc3ccccc32)n1`, the pIC50 was 6.30 to 6.70 in assay [11], > 7.00 in assay [12], > 7.00 in assay [13] and > 7.00 in [14].

Regarding `COc1cc(N2CCN(C(C)=O)CC2)ccc1Nc1ncc(Cl)c(-c2c[nH]c3ccccc23)n1`, the negative-log IC50 (pIC50) in assay [15] was 7.10.

Turning to `COc1cc(F)ccc1-c1cc(Nc2cc(CS(C)(=O)=NC#N)ccn2)ncc1F` (stereo not drawn), the pIC50 in [16] is 7.14; in assay [17] it was 5.85.

In the case of `Cc1c(NC(=O)OC[C@@H]2COCCN2)cn2ncnc(Nc3ccc4c(cnn4Cc4cccc(F)c4)c3)c12`, the pIC50 is 7.66 in assay [18]; 6.05 in assay [19]; 6.47 in [20]; 6.12 in assay [21]; 7.70 in assay [22].

Consider `CC(C)(Cc1ccccc1C1CCN(S(C)(=O)=O)CC1)Nc1nc(N2CCOCC2)nc(-n2c(C(F)F)nc3ccccc32)n1`, for which the pIC50 in assay [23] is 6.30 to 6.70.

`O=C(Nc1cccc(Nc2nccc(-c3cccnc3)n2)c1)c1ccccc1S`: the pIC50 in assay [24] is < 4.30.

As to `COc1cc2ncc(C#N)c(Nc3cc(OC)c(OC)c(OC)c3)c2cc1OC`, the pIC50 in assay [25] was 5.82.

In assay [26], `CN1CCC(O)(c2nc(-c3ccc(F)cc3)c(-c3ccncc3)s2)CC1` registered an inhibition of 0%.

Consider `COC(=O)c1cc(NCc2cc(O)ccc2O)ccc1O`, for which the pIC50 in [27] was 5.05.

In turn, `COc1cccc(Nc2ccnc(Nc3cccc(OC)c3)n2)c1` had a pIC50 in [28] of 5.11.

Consider `O=C(NCCN1CCCC1)c1cc2n(c1)CCc1c(NC(=O)c3ccccc3Cl)n[nH]c1-2`, for which, in [29], the pIC50 is 5.10.

On to `O=C(CCN1CCOCC1)Nc1ccc2ncnc(Nc3cccc(Br)c3)c2c1`, for which the pIC50 in assay [30] is < 4.70.

For the molecule `O=c1ccc2cnc(Nc3ccc(N4CCCCC4)cc3)nc2n1C1CCCO1` (stereo not drawn), the pIC50 in assay [31] is 6.55; in assay [32], 5.72.

As for `O=c1ncn2nc(Sc3ccccc3)ccc2c1-c1c(Cl)cccc1Cl`, the pIC50 is 5.52 in assay [33] and 5.89 in assay [34].

As to `Nc1ccc2c(NCc3ccccc3)ncnc2c1`, the negative logarithm of the IC50 (pIC50) in assay [35] is 5.90.

As for `COc1ccc(/C=C/C(=O)Nc2cccc(Oc3cc(Nc4ccc(OCc5cccc(F)c5)c(Cl)c4)ncn3)c2)cc1OC`, the pIC50 in assay [36] was < 4.70.

`O=C1NCN2N=C(Sc3ccccc3Br)C=CC2=C1c1c(Cl)cccc1Cl`: the pIC50 was 6.62 in assay [37] and 6.80 in assay [38].
